Laboratory results taken from PubChem BioAssay (NCI).
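GI50 marks 50% less growth. TGI marks complete inhibition of growth.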

Tests used:
Assay in all cases: NCI tumour cell line growth inhibition, 384-well format
SK-OV-3 ovarian = system: SK-OV-3 ovarian
CAKI-1 renal = system: CAKI-1 renal
EKVX NSCLC = system: EKVX NSCLC
IGROV1 ovarian = system: IGROV1 ovarian
ACHN renal = system: ACHN renal
HOP-92 NSCLC = system: HOP-92 NSCLC
KM12 colon = system: KM12 colon
PC-3 prostate = system: PC-3 prostate
MOLT-4 leukemia = system: MOLT-4 leukemia
M14 melanoma = system: M14 melanoma
OVCAR-8 ovarian = system: OVCAR-8 ovarian
OVCAR-5 ovarian = system: OVCAR-5 ovarian
A549 NSCLC = system: A549 NSCLC
NCI-H460 NSCLC = system: NCI-H460 NSCLC
RXF 393 renal = system: RXF 393 renal
MALME-3M melanoma = system: MALME-3M melanoma
NCI-H522 lung = system: NCI-H522 lung
HCC-2998 colon = system: HCC-2998 colon
NCI-H322M lung = system: NCI-H322M lung
786-0 renal = system: 786-0 renal
MDA-MB-231 breast = system: MDA-MB-231 breast
RPMI-8226 leukemia = system: RPMI-8226 leukemia
HL-60(TB) leukemia = system: HL-60(TB) leukemia
MCF7 breast = system: MCF7 breast
NCI/ADR-RES ovarian = system: NCI/ADR-RES ovarian
MDA-MB-468 breast = system: MDA-MB-468 breast
SF-295 CNS = system: SF-295 CNS
NCI-H226 lung = system: NCI-H226 lung
MDA-MB-435 melanoma = system: MDA-MB-435 melanoma
HCT-15 colon = system: HCT-15 colon
HOP-62 NSCLC = system: HOP-62 NSCLC
OVCAR-3 ovarian = system: OVCAR-3 ovarian
NCI-H23 lung = system: NCI-H23 lung
A498 renal = system: A498 renal
COLO 205 colon = system: COLO 205 colon
DU-145 prostate = system: DU-145 prostate
OVCAR-4 ovarian = system: OVCAR-4 ovarian
LOX IMVI melanoma = system: LOX IMVI melanoma
BT-549 breast = system: BT-549 breast
SN12C renal = system: SN12C renal
HT29 colon = system: HT29 colon
HS 578T breast = system: HS 578T breast
SK-MEL-5 melanoma = system: SK-MEL-5 melanoma
HCT-116 colon = system: HCT-116 colon
TK-10 renal = system: TK-10 renal
SW-620 colon = system: SW-620 colon
U251 glioblastoma = system: U251 glioblastoma
SF-539 CNS = system: SF-539 CNS
SNB-75 CNS = system: SNB-75 CNS
SF-268 CNS = system: SF-268 CNS
K-562 leukemia = system: K-562 leukemia
SK-MEL-28 melanoma = system: SK-MEL-28 melanoma
SNB-19 CNS = system: SNB-19 CNS
UACC-257 melanoma = system: UACC-257 melanoma
SK-MEL-2 melanoma = system: SK-MEL-2 melanoma
CCRF-CEM leukemia = system: CCRF-CEM leukemia
UACC-62 melanoma = system: UACC-62 melanoma
T-47D breast = system: T-47D breast
UO-31 renal = system: UO-31 renal

## Cc1cn(-c2cc(NC(=O)c3ccc(C)c(Nc4nccc(-c5cccnc5)n4)c3)cc(C(F)(F)F)c2)cn1
SK-OV-3 ovarian
  GI50: 1.83 µM
  TGI: 3.3 µM
CAKI-1 renal
  GI50: 3.04 µM
  TGI: 10.8 µM
EKVX NSCLC
  GI50: 1.88 µM
  TGI: 3.78 µM
IGROV1 ovarian
  GI50: 1.87 µM
  TGI: 3.61 µM
ACHN renal
  GI50: 1.64 µM
  TGI: 3.47 µM
HOP-92 NSCLC
  GI50: 1.66 µM
  TGI: 3.6 µM
KM12 colon
  GI50: 2.5 µM
  TGI: 6.87 µM
PC-3 prostate
  GI50: 1.71 µM
  TGI: 3.13 µM
MOLT-4 leukemia
  GI50: 1.89 µM
  TGI: > 100 µM
M14 melanoma
  GI50: 1.19 µM
  TGI: 2.53 µM
OVCAR-8 ovarian
  GI50: 1.59 µM
  TGI: 3.32 µM
OVCAR-5 ovarian
  GI50: 1.91 µM
  TGI: 5.09 µM
A549 NSCLC
  GI50: 1.72 µM
  TGI: 3.16 µM
NCI-H460 NSCLC
  GI50: 2.67 µM
  TGI: 9.42 µM
RXF 393 renal
  GI50: 1.47 µM
  TGI: 2.84 µM
MALME-3M melanoma
  GI50: 0.447 µM
  TGI: 1.62 µM
NCI-H522 lung
  GI50: 1.82 µM
  TGI: 4.48 µM
HCC-2998 colon
  GI50: 2.24 µM
  TGI: 5.36 µM
NCI-H322M lung
  GI50: 2.29 µM
  TGI: 4.63 µM
786-0 renal
  GI50: 1.64 µM
  TGI: 3.03 µM
MDA-MB-231 breast
  GI50: 1.3 µM
  TGI: 3.65 µM
RPMI-8226 leukemia
  GI50: 1.46 µM
  TGI: 5.45 µM
HL-60(TB) leukemia
  GI50: 1.46 µM
  TGI: 7.92 µM
MCF7 breast
  GI50: 1.88 µM
  TGI: 3.67 µM
NCI/ADR-RES ovarian
  GI50: 1.58 µM
  TGI: 3.74 µM
MDA-MB-468 breast
  GI50: 1.77 µM
  TGI: 3.31 µM
SF-295 CNS
  GI50: 1.74 µM
  TGI: 3.39 µM
NCI-H226 lung
  GI50: 1.7 µM
  TGI: 3.68 µM
MDA-MB-435 melanoma
  GI50: 1.72 µM
  TGI: 3.49 µM
HCT-15 colon
  GI50: 3.6 µM
  TGI: 14.2 µM
HOP-62 NSCLC
  GI50: 2.21 µM
  TGI: 5.73 µM
OVCAR-3 ovarian
  GI50: 1.73 µM
  TGI: 3.36 µM
NCI-H23 lung
  GI50: 2.24 µM
  TGI: 7.48 µM
A498 renal
  GI50: 1.98 µM
  TGI: 3.94 µM
COLO 205 colon
  GI50: 1.28 µM
  TGI: 2.98 µM
DU-145 prostate
  GI50: 2.8 µM
  TGI: 7.6 µM
OVCAR-4 ovarian
  GI50: 3.16 µM
  TGI: 7.25 µM
LOX IMVI melanoma
  GI50: 2.2 µM
  TGI: 9.93 µM
BT-549 breast
  GI50: 1.99 µM
  TGI: 3.43 µM
SN12C renal
  GI50: 3.61 µM
  TGI: > 100 µM
HT29 colon
  GI50: 1.66 µM
  TGI: 3.78 µM
HS 578T breast
  GI50: 1.55 µM
  TGI: 2.9 µM
SK-MEL-5 melanoma
  GI50: 1.28 µM
  TGI: 2.6 µM
HCT-116 colon
  GI50: 1.65 µM
  TGI: 3.75 µM

## COc1cc(OC)c(C(=O)C(CN(C)C)CN(C)C)cc1OC
TK-10 renal
  GI50: 1.54 µM
  TGI: 3.04 µM
SK-OV-3 ovarian
  GI50: 16.9 µM
  TGI: 30.7 µM
CAKI-1 renal
  GI50: 1.02 µM
  TGI: 2.22 µM
EKVX NSCLC
  GI50: 10.4 µM
  TGI: 22.3 µM
IGROV1 ovarian
  GI50: 2.06 µM
  TGI: 4.43 µM
ACHN renal
  GI50: 1.41 µM
  TGI: 2.74 µM
HOP-92 NSCLC
  GI50: 2.12 µM
  TGI: 3.66 µM
SW-620 colon
  GI50: 1.14 µM
  TGI: 2.44 µM
KM12 colon
  GI50: 3.64 µM
  TGI: 9.17 µM
PC-3 prostate
  GI50: 3 µM
  TGI: 7.62 µM
MOLT-4 leukemia
  GI50: 0.225 µM
  TGI: 0.591 µM
M14 melanoma
  GI50: 2.16 µM
  TGI: 4.3 µM
OVCAR-8 ovarian
  GI50: 1.44 µM
  TGI: 2.84 µM
U251 glioblastoma
  GI50: 7.75 µM
  TGI: 20 µM
A549 NSCLC
  GI50: 14.1 µM
  TGI: 27.6 µM
SF-539 CNS
  GI50: 1.6 µM
  TGI: 3.06 µM
SNB-75 CNS
  GI50: 19.8 µM
  TGI: 34.1 µM
NCI-H460 NSCLC
  GI50: 2.75 µM
  TGI: 6.41 µM
RXF 393 renal
  GI50: 1.92 µM
  TGI: 3.44 µM
MALME-3M melanoma
  GI50: 0.999 µM
  TGI: 2.17 µM
NCI-H522 lung
  GI50: 0.382 µM
  TGI: 1.57 µM
HCC-2998 colon
  GI50: 4.8 µM
  TGI: 18.6 µM
NCI-H322M lung
  GI50: 18.4 µM
  TGI: 32.5 µM
786-0 renal
  GI50: 2.27 µM
  TGI: 4.92 µM
RPMI-8226 leukemia
  GI50: 0.419 µM
  TGI: 1.14 µM
HL-60(TB) leukemia
  GI50: 0.146 µM
  TGI: 0.279 µM
SF-268 CNS
  GI50: 17.2 µM
  TGI: 31.1 µM
K-562 leukemia
  GI50: 6 µM
  TGI: 18.1 µM
MCF7 breast
  GI50: 1.83 µM
  TGI: 3.77 µM
NCI/ADR-RES ovarian
  GI50: 2.12 µM
  TGI: 4.11 µM
SK-MEL-28 melanoma
  GI50: 3.32 µM
  TGI: 7.76 µM
MDA-MB-468 breast
  GI50: 0.317 µM
  TGI: 0.697 µM
SF-295 CNS
  GI50: 19.2 µM
  TGI: 39.3 µM
NCI-H226 lung
  GI50: 1.91 µM
  TGI: 4.42 µM
SNB-19 CNS
  GI50: 14.4 µM
  TGI: 27.7 µM
UACC-257 melanoma
  GI50: 1.41 µM
  TGI: 2.81 µM
MDA-MB-435 melanoma
  GI50: 3.27 µM
  TGI: 8.94 µM
HCT-15 colon
  GI50: 1.49 µM
  TGI: 2.88 µM
HOP-62 NSCLC
  GI50: 22 µM
  TGI: 36.6 µM
SK-MEL-2 melanoma
  GI50: 1.7 µM
  TGI: 3.67 µM
OVCAR-3 ovarian
  GI50: 1.71 µM
  TGI: 3.37 µM
NCI-H23 lung
  GI50: 2.17 µM
  TGI: 4.18 µM
A498 renal
  GI50: 12.5 µM
  TGI: 25.1 µM
COLO 205 colon
  GI50: 0.696 µM
  TGI: 1.96 µM
CCRF-CEM leukemia
  GI50: 0.369 µM
  TGI: 1.38 µM
DU-145 prostate
  GI50: 4.56 µM
  TGI: 15 µM
OVCAR-4 ovarian
  GI50: 1.81 µM
  TGI: 3.21 µM
UACC-62 melanoma
  GI50: 2.06 µM
  TGI: 4.4 µM
LOX IMVI melanoma
  GI50: 6.55 µM
  TGI: 19.9 µM
BT-549 breast
  GI50: 3.06 µM
  TGI: 8.06 µM
SN12C renal
  GI50: 1.81 µM
  TGI: 3.58 µM
HT29 colon
  GI50: 3.42 µM
  TGI: 12.9 µM
HS 578T breast
  GI50: 7.53 µM
  TGI: 19.8 µM
SK-MEL-5 melanoma
  GI50: 5.64 µM
  TGI: 18.4 µM
HCT-116 colon
  GI50: 1.41 µM
  TGI: 2.82 µM

## S=P(N1CC1)(N1CC1)N1CC1
T-47D breast
  GI50: 93.6 µM
SK-OV-3 ovarian
  GI50: 29.8 µM
CAKI-1 renal
  GI50: 17.8 µM
ACHN renal
  GI50: 19.9 µM
  TGI: 63.4 µM
SW-620 colon
  GI50: 61.6 µM
KM12 colon
  GI50: 93.6 µM
MOLT-4 leukemia
  GI50: 0.4 µM
  TGI: 1.49 µM
M14 melanoma
  GI50: 24.8 µM
OVCAR-8 ovarian
  GI50: 28 µM
UO-31 renal
  GI50: 74.4 µM
U251 glioblastoma
  GI50: 20.7 µM
OVCAR-5 ovarian
  GI50: 70.4 µM
A549 NSCLC
  GI50: 38.4 µM
SF-539 CNS
  GI50: 20.2 µM
  TGI: 92.8 µM
SNB-75 CNS
  GI50: 22 µM
RXF 393 renal
  GI50: 53.9 µM
NCI-H522 lung
  GI50: 45.9 µM
786-0 renal
  GI50: 32.7 µM
RPMI-8226 leukemia
  GI50: 12 µM
  TGI: 36.4 µM
HL-60(TB) leukemia
  GI50: 1.27 µM
  TGI: 2.85 µM
SF-268 CNS
  GI50: 9.43 µM
K-562 leukemia
  GI50: 74 µM
MCF7 breast
  GI50: 21.2 µM
NCI/ADR-RES ovarian
  GI50: 30.1 µM
MDA-MB-468 breast
  GI50: 3.58 µM
  TGI: 18.7 µM
SF-295 CNS
  GI50: 11.3 µM
  TGI: 31.3 µM
NCI-H226 lung
  GI50: 61.3 µM
SNB-19 CNS
  GI50: 41.6 µM
HCT-15 colon
  GI50: 33.7 µM
HOP-62 NSCLC
  GI50: 8.65 µM
  TGI: 31.8 µM
OVCAR-3 ovarian
  GI50: 43.3 µM
NCI-H23 lung
  GI50: 17.3 µM
  TGI: 99.5 µM
A498 renal
  GI50: 39.4 µM
CCRF-CEM leukemia
  GI50: 4.2 µM
  TGI: 11 µM
DU-145 prostate
  GI50: 7.82 µM
  TGI: 98.9 µM
UACC-62 melanoma
  GI50: 11 µM
LOX IMVI melanoma
  GI50: 24.9 µM
BT-549 breast
  GI50: 29 µM
SN12C renal
  GI50: 9.52 µM
HT29 colon
  GI50: 59.4 µM
HCT-116 colon
  GI50: 34.1 µM
